According to patent US7435801B2, “Antibodies and other ligands directed against KIR2DL4 receptor for production of interferon gamma” (The United States of America, as represented by the …, priority 2000, dated 2008):

Experiments:
[1] = tested on: 2DL4-induced production of IFN-gamma; experiment: MAPK inhibitors on anti-2DL4 mAb-induced IFN-gamma secretion by resting NK cells; assay type: cell-based, human
[2] = tested on: IL-2-mediated induction of IFN-gamma production; experiment: MAPK inhibitors on rIL-2-induced IFN-gamma release by resting NK cells; assay type: cell-based, human; conditions: rIL-2 5 U/ml, 20 h

COc1cccc(-c2cc(=O)c3ccccc3o2)c1N [PD98059]
inhibition of 2DL4-induced IFN-gamma production ([1]; concentration not given): only a partial inhibitory effect
inhibition of IL-2-mediated induction of IFN-gamma production ([2]; 50 μM inhibitor): severely inhibited

C[S+]([O-])c1ccc(-c2nc(-c3ccncc3)c(-c3ccc(F)cc3)[nH]2)cc1 (stereo not shown) [SB203580]
inhibition of 2DL4-induced IFN-gamma production ([1]; 1 μM inhibitor): Complete inhibition
effect on IL-2-mediated induction of IFN-gamma production ([2]; concentration not given): unaffected
